The text below walks through data of patent US20250236608A1, “EGFR INHIBITORS” (Blueprint Medicines Corporation, priority 2022, published 2025).

SMILES strings stand for the structures.

For one test, the target named is EGFR (d746-750) (Homo sapiens (Human), UniProt P00533, DEL746-750). As to the kind of experiment: Biochemical EGFR inhibition assay, EGFR (d746-750). The note with it: Caliper mobility shift; 1.0 mM ATP or ATP Km; read-out: Enz EGFR_Exon19-del746-750 IC50.
The target of test [1] is pEGFR (Tyr1068) in PC-9 cells (Ex19Del) (Homo sapiens (Human), UniProt P00533, DEL746-750). As to the kind of experiment: PC-9 pEGFR AlphaLISA assay. Format: cell-based. Particulars: 4 hours incubation, p-EGFR (Tyr1068) AlphaLISA, read-out: Ext pEGFR_PC-9 Ex19Del IC50. An outline of the steps:
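Compounds are added in ten 4-fold dilutions to adherent cells grown in serum-containing (10% FBS) phenol-free DMEM and left for 4 hours at 37° C. Phosphorylated receptor in lysates is quantified by bead-based AlphaLISA. IC50 values derive from inhibition plotted against log dose.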

For the next test, the target named is EGFR L858R (Homo sapiens (Human), UniProt P00533, L858R). As to the kind of experiment: Biochemical EGFR inhibition assay, EGFR L858R. The note with it: Caliper mobility shift; 1.0 mM ATP or ATP Km; read-out: Enz EGFR_L858R IC50.
Sequence of EGFR L858R (P00533 25-1210 L858R): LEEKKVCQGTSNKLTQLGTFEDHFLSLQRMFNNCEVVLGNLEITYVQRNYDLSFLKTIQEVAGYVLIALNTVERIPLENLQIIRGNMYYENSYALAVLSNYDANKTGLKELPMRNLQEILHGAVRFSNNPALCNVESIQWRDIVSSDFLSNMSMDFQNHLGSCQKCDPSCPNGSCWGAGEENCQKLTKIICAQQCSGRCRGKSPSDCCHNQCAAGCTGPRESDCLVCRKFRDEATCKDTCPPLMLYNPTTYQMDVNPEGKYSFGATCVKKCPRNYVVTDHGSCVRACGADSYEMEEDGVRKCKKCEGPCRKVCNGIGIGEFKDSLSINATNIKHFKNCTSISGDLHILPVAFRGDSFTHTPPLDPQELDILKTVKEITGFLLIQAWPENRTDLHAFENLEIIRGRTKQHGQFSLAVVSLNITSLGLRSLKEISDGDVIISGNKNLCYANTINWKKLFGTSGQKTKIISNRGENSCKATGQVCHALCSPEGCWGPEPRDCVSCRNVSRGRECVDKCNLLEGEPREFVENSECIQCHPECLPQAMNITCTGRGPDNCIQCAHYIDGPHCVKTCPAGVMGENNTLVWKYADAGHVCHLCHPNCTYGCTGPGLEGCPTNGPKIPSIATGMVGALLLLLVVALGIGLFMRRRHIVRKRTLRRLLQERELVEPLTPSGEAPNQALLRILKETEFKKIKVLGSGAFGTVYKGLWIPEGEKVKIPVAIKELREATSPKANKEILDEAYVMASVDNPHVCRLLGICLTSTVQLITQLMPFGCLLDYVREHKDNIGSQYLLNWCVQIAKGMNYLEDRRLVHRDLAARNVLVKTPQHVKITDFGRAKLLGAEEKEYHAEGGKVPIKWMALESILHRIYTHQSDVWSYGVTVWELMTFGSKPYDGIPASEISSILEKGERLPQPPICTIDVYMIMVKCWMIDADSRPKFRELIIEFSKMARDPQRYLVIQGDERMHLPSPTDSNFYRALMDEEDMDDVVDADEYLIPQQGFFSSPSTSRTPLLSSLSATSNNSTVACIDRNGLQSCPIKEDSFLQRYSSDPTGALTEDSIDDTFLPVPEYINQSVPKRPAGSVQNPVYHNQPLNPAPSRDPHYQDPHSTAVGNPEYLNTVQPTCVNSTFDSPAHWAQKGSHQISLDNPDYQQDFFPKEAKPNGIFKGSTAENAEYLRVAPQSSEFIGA

Sequence of EGFR (d746-750) (P00533 other isoform, or with tags, fused parts or gaps del 1-694/del 746-750 limits assumed): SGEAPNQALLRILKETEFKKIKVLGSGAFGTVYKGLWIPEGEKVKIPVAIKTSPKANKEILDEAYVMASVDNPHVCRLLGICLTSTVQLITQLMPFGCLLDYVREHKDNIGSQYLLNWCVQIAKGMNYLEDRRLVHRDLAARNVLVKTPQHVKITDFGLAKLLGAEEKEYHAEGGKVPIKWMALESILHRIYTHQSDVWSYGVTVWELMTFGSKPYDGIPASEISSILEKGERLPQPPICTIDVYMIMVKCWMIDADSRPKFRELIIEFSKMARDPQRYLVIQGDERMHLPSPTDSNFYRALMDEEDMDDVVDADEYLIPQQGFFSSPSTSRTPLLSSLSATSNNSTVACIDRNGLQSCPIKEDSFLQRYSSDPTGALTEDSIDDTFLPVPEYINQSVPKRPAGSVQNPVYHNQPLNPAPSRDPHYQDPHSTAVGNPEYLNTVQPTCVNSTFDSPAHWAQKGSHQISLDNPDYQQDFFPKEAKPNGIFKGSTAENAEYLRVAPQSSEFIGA
Sequence of pEGFR (Tyr1068) in PC-9 cells (Ex19Del) (P00533 other isoform, or with tags, fused parts or gaps del 746-750): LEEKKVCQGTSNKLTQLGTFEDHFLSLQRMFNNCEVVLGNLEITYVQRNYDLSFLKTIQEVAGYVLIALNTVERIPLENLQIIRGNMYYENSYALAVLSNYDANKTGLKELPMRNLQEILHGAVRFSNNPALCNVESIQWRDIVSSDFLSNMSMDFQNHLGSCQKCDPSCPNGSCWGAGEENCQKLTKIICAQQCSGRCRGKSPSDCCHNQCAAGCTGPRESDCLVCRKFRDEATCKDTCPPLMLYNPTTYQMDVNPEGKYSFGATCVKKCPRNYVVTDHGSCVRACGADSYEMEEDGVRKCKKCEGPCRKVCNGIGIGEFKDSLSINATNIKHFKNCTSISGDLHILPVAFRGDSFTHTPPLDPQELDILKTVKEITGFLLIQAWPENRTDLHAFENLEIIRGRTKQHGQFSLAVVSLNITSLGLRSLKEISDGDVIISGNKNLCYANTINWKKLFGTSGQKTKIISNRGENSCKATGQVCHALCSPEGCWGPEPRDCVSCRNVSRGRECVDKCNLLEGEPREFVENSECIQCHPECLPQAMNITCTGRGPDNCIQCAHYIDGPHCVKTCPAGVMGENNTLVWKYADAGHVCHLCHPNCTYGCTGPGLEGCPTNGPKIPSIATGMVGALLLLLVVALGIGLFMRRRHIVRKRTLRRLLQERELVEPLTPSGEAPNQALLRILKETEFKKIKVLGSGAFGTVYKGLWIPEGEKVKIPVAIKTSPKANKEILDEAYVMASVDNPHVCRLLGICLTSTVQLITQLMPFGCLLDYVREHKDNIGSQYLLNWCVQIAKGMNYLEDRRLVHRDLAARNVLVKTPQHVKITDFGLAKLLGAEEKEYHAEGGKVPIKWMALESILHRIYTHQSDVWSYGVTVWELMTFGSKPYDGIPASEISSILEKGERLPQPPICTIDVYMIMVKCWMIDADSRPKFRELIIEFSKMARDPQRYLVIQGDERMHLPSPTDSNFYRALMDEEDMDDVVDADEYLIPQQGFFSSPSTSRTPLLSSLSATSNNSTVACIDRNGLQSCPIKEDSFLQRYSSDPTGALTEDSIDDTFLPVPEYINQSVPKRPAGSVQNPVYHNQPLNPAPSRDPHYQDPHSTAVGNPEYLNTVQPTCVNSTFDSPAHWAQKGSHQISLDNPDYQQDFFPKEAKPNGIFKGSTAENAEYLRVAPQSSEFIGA

For the molecule `COc1cc2ncnc(-c3cn(CCN(C)C)nc3-c3ccccc3)c2cc1NC(=O)C12CC(C1)C2` [Example 308, N-(4-(1-(2-(dimethylamino)ethyl)-3-phenyl-1H-pyrazol-4-yl)-7-methoxyquinazolin-6-yl)bicyclo[1.1.1]pentane-1-carboxamide], the IC50 was found to be 3.5 nM at EGFR (d746-750), 6.1 nM in test [1] and 7.3 nM at EGFR L858R.
In the same order, the values of `COc1cc2ncnc(-c3cn(C)nc3-c3ccccc3)c2cc1NC(=O)N1C[C@@H](C)OC[C@@H]1C` [Example 183, (2R,5S)-N-(7-methoxy-4-(1-methyl-3-phenyl-1H-pyrazol-4-yl)quinazolin-6-yl)-2,5-dimethylmorpholine-4-carboxamide] are 3.6 nM, 10.7 nM and 8 nM.
In the case of `CCOc1cc2ncnc(-c3cn(C)nc3-c3ccccc3)c2nc1NC(=O)[C@@]12C[C@@H]1CN(C)C2` (single isomer, unassigned) [Example 377, (1S,5S)—N-(7-ethoxy-4-(1-methyl-3-phenyl-1H-pyrazol-4-yl)pyrido[3,2-d]pyrimidin-6-yl)-3-methyl-3-azabicyclo[3.1.0]hexane-1-carboxamide or (1R,5R)—N-(7-ethoxy-4-(1-methyl-3-phenyl-1H-pyrazol-4-yl)pyrido[3,2-d]pyrimidin-6-yl)-3-methyl-3-azabicyclo[3.1.0]hexane-1-carboxamide], the results for the IC50 (on EGFR (d746-750); in test [1]; on EGFR L858R) were 1.3 nM, 2.8 nM and 2.2 nM, respectively.
For the molecule `CCn1cc(-c2ncnc3cc(OC)c(N4CCOCC4)cc23)c(-c2ccc(F)cc2)n1` [Example 171, 4-(4-(1-ethyl-3-(4-fluorophenyl)-1H-pyrazol-4-yl)-7-methoxyquinazolin-6-yl)morpholine], the figures for the IC50 (on EGFR (d746-750); in test [1]; at EGFR L858R) were 2.9 nM, 4.8 nM and 5.2 nM, respectively.
For `COCCOc1cc2ncnc(-c3cn(CC(F)F)nc3-c3ccccc3)c2cc1OC` [Example 16, 4-(1-(2,2-difluoroethyl)-3-phenyl-1H-pyrazol-4-yl)-6-methoxy-7-(2-methoxyethoxy)quinazoline], the IC50 at EGFR (d746-750) was 1.2 nM; in test [1], 2.1 nM; at EGFR L858R, 1.8 nM.
For `COc1cc2ncnc(-c3sc(C)nc3-c3ccccc3)c2cc1NC(=O)C1CC1` [Example 266, N-(7-methoxy-4-(2-methyl-4-phenylthiazol-5-yl)quinazolin-6-yl)cyclopropanecarboxamide], the IC50 is 1 nM on EGFR (d746-750), 4.9 nM in test [1] and 1.5 nM on EGFR L858R.
`COc1cc2ncnc(-c3cn(C)nc3-c3ccccc3)c2cc1-c1ccc2c(c1)CN(C)C2=O` [Example 137, 5-(7-methoxy-4-(1-methyl-3-phenyl-1H-pyrazol-4-yl)quinazolin-6-yl)-2-methylisoindolin-1-one]: the IC50 at EGFR (d746-750) amounted to 2.2 nM; in test [1], 3.6 nM; on EGFR L858R, 3.9 nM.
Turning to `COc1cc2ncnc(-c3cn(C)nc3-c3ccccc3)c2cc1N` [Preparation 190], the IC50 is 0.8 nM at EGFR (d746-750), 5.4 nM in test [1] and 1.3 nM at EGFR L858R.
With `CCC(=O)Nc1cc2c(-c3cn(CC(F)F)nc3-c3ccccc3)ncnc2cc1OC` [Example 250, N-(4-(1-(2,2-difluoroethyl)-3-phenyl-1H-pyrazol-4-yl)-7-methoxyquinazolin-6-yl)propionamide], the results for the IC50 (at EGFR (d746-750); in test [1]; at EGFR L858R) were 1 nM, 0.9 nM and 1.4 nM, respectively.
Consider `CCOc1cc2ncnc(-c3cn(C)nc3-c3ccccc3)c2cc1OC1CCN(C)CC1` [Example 9, 7-ethoxy-4-(1-methyl-3-phenyl-1H-pyrazol-4-yl)-6-((1-methylpiperidin-4-yl)oxy)quinazoline], for which the IC50 was found to be 6.4 nM at EGFR (d746-750), 9.8 nM in test [1] and 13.1 nM at EGFR L858R.
In the same order, the values of `COc1cc2ncnc(-c3cn(C)nc3-c3ccccc3)c2cc1NC(=O)N1CCOC(C)(C)C1` [Example 184, N-[7-methoxy-4-(1-methyl-3-phenyl-1H-pyrazol-4-yl)quinazolin-6-yl]-2,2-dimethylmorpholine-4-carboxamide] are 1.8 nM, 7.9 nM and 3.5 nM.
For `COc1cc2ncnc(-c3cn(C)nc3-c3ccccc3F)c2nc1NC(=O)C12CC(N(C)C)(C1)C2` [Example 403, 3-(dimethylamino)-N-(4-(3-(2-fluorophenyl)-1-methyl-1H-pyrazol-4-yl)-7-methoxypyrido[3,2-d]pyrimidin-6-yl)bicyclo[1.1.1]pentane-1-carboxamide], the IC50 at EGFR (d746-750) turned out to be 1.2 nM; in test [1], 5 nM; on EGFR L858R, 4.2 nM.
Take `COc1cc2ncnc(-c3cn(C)nc3-c3ccccc3)c2cc1OC(=O)N1CCOC[C@H]1C` [Example 61, 7-methoxy-4-(1-methyl-3-phenyl-1H-pyrazol-4-yl)quinazolin-6-yl (R)-3-methylmorpholine-4-carboxylate]: the IC50 stood at 2.3 nM on EGFR (d746-750), 7.9 nM in test [1] and 4.5 nM on EGFR L858R.
As for `COc1cc2ncnc(-c3cn(CC(F)F)nc3-c3ccccc3)c2cc1C(C)(C)O` [Example 122, 2-(4-(1-(2,2-difluoroethyl)-3-phenyl-1H-pyrazol-4-yl)-7-methoxyquinazolin-6-yl) propan-2-ol], the IC50 at EGFR (d746-750) was found to be 1.3 nM; in test [1], 2.8 nM; at EGFR L858R, 1.9 nM.
The matching figures for `COc1cc2ncnc(-c3cn(C)nc3-c3ccccc3)c2cc1NC(=O)[C@H](C)CN(C)C` (single isomer, unassigned) [Example 239, (R)-3-(dimethylamino)-N-(7-methoxy-4-(1-methyl-3-phenyl-1H-pyrazol-4-yl)quinazolin-6-yl)-2-methylpropanamide or (S)-3-(dimethylamino)-N-(7-methoxy-4-(1-methyl-3-phenyl-1H-pyrazol-4-yl)quinazolin-6-yl)-2-methylpropanamide]: 1.7 nM, 4 nM and 4.1 nM.
As to `CCOc1cc2ncnc(-c3cn(C)nc3-c3ccccc3)c2cc1NC(=O)[C@]12COC[C@H]1C2` [Example 291, (1S,5S)—N-(7-ethoxy-4-(1-methyl-3-phenyl-1H-pyrazol-4-yl)quinazolin-6-yl)-3-oxabicyclo[3.1.0]hexane-1-carboxamide], the IC50 amounted to 1 nM at EGFR (d746-750), 1.7 nM in test [1] and 1.6 nM at EGFR L858R.
For `COc1cc2ncnc(-c3cn(C)nc3-c3ccc(Cl)cc3)c2nc1NC(=O)C12CC(N(C)C)(C1)C2` [Example 474, N-{4-[3-(4-chlorophenyl)-1-methyl-1H-pyrazol-4-yl]-7-methoxypyrido[3,2-d]pyrimidin-6-yl}-3-(dimethylamino) bicyclo[1.1.1]pentane-1-carboxamide], the IC50 on EGFR (d746-750) was 2 nM; in test [1], 3.6 nM; on EGFR L858R, 5.6 nM.
With `COc1cc2ncnc(-c3cn(C)nc3-c3ccccc3)c2cc1N1CC2(COC2)C1` [Example 161, 6-(7-methoxy-4-(1-methyl-3-phenyl-1H-pyrazol-4-yl)quinazolin-6-yl)-2-oxa-6-azaspiro[3.3]heptane], the IC50 was determined as 2.5 nM at EGFR (d746-750), 8.1 nM in test [1] and 4.6 nM at EGFR L858R.
The matching figures for `COc1cc2ncnc(-c3cn(C)nc3-c3ccccc3)c2cc1NC(=O)[C@@H]1C[C@@H]1C` [Example 283, (1R,2S)—N-(7-methoxy-4-(1-methyl-3-phenyl-1H-pyrazol-4-yl)quinazolin-6-yl)-2-methylcyclopropane-1-carboxamide]: 0.9 nM, 1.1 nM and 1.7 nM.
In the same order, the values of `COc1cc2ncnc(-c3cn(C)nc3-c3ccccc3)c2nc1OC(C)c1cscn1` (stereo not drawn) [Example 31, 4-(1-((7-methoxy-4-(1-methyl-3-phenyl-1H-pyrazol-4-yl)pyrido[3,2-d]pyrimidin-6-yl)oxy)ethyl)thiazole] are 0.8 nM, 1.1 nM and 1 nM.
In the case of `CCn1cc(-c2ncnc3cc(OC)c(NC(=O)[C@]45COC[C@H]4C5)cc23)c(-c2ccccc2)n1` [Example 289, (1S,5S)—N-(4-(1-ethyl-3-phenyl-1H-pyrazol-4-yl)-7-methoxyquinazolin-6-yl)-3-oxabicyclo[3.1.0]hexane-1-carboxamide], the IC50 is 0.8 nM at EGFR (d746-750), 1.5 nM in test [1] and 1.5 nM on EGFR L858R.
In the case of `CCCn1cc(-c2ncnc3cc(OC)c(NC(=O)c4ccc(C5CC5)nc4)cc23)c(-c2ccccc2)n1` [Example 301, 6-cyclopropyl-N-(7-methoxy-4-(3-phenyl-1-propyl-1H-pyrazol-4-yl)quinazolin-6-yl)nicotinamide], the IC50 at EGFR (d746-750) came out at 2 nM; in test [1], 0.8 nM; at EGFR L858R, 2.7 nM.
In the same order, the values of `CCOc1cc2ncnc(-c3cn(C)nc3-c3ccccc3)c2cc1OC1CCOCC1` [Example 24, 7-ethoxy-4-(1-methyl-3-phenyl-1H-pyrazol-4-yl)-6-((tetrahydro-2H-pyran-4-yl)oxy)quinazoline] are 0.8 nM, 2.6 nM and 1.3 nM.
